Source: ChEMBL document CHEMBL5209571, “Membrane potential based assay for SLC13A3 using HEK-293 SLC13A3 OE cells” (2022)

Biological target: T1, Na(+)/dicarboxylate cotransporter 3 (Homo sapiens, UniProt Q8WWT9)
T1 sequence (Q8WWT9 whole entry): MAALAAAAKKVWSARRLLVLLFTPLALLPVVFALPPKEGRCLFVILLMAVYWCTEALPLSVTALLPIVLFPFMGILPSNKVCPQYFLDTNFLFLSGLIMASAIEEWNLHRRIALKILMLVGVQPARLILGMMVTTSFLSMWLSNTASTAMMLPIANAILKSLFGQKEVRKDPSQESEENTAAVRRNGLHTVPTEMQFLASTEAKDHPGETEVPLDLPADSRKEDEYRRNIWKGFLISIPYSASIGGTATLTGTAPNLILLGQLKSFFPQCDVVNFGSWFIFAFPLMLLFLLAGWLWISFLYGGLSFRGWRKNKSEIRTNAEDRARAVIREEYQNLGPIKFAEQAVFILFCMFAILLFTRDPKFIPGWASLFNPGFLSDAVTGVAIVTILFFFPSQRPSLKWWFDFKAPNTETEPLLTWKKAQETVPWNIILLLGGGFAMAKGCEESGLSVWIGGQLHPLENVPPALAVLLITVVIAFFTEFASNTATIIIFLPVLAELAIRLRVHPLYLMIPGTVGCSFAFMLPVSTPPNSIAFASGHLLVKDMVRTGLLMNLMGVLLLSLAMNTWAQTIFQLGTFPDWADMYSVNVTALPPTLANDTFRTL
Assay: Substrate uptake by the Na(+)/Dicarboxylate Cotransporter 3 (NADC3, SLC13A3) as assessed by the fluorescent FLIPR membrane potential dye in HEK-293 JumpIN-SLC13A3 cells (PubChem AID: 1794820)
Format: functional, cell-based, HEK293

EC50 | SMILES
54 µM | O=C(O)CCC(=O)C(=O)O [ALPHA-KETOGLUTARIC ACID]
107 µM | O=C(O)CCC(=O)O [SUCCINIC ACID]
